{"source": "patent US9499492B2", "about": "“4-(ortho)-fluorophenyl-5-fluoropyrimidin-2-yl amines containing a sulfoximine group” (BAYER PHARMA AKTIENGESELLSCHAFT, priority 2012, dated 2016)", "key": {"[1]": {"target": "human carbonic anhydrase-2 (Homo sapiens (Human), UniProt P00918)", "experiment": "Carbonic anhydrase assay, carbonic anhydrase-2 (Method 4)", "assay_type": "biochemical", "conditions": "read-out: Inhibition of Carbonic anhydrase-2 IC50", "procedure": "(§1) 4. Carbonic Anhydrase Assay\nThe principle of the assay is based on the hydrolysis of 4-nitrophenyl acetate by carbonic anhydrases (Pocker & Stone, Biochemistry, 1967, 6, 668), with subsequent photometric determination of the dye product 4-nitrophenolate at 400 nm by means of a 96-channel spectral photometer.\n(§2) 2 μL of the test compounds, dissolved in DMSO (100-fold final concentration), in a concentration range of 0.03-10 μmol/L (final), was pipetted as quadruplicates into the wells of a 96-hole microtiter plate. Wells that contained the solvent without test compounds were used as reference values (1. Wells without carbonic anhydrase for correction of the non-enzymatic hydrolysis of the substrate, and 2. Wells with carbonic anhydrase for determining the activity of the non-inhibited enzyme).\n(§3) 188 μL of assay buffer (10 mmol/L of Tris/HCl, pH 7.4, 80 mmol/L of NaCl), with or without 3 units/well of carbonic anhydrase-1 [=human carbonic anhydrase-1 (Sigma, #C4396)] in order to determine carbonic anhydrase-1 inhibition or 3 units/well of carbonic anhydrase-2 [=human carbonic anhydrase-2 (Sigma, #C6165)] for measuring carbonic anhydrase-2 inhibition, was pipetted into the wells of the microtiter plate."}, "[2]": {"target": "human carbonic anhydrase-1 (Homo sapiens (Human), UniProt P00915)", "sequence (P00915 whole entry)": "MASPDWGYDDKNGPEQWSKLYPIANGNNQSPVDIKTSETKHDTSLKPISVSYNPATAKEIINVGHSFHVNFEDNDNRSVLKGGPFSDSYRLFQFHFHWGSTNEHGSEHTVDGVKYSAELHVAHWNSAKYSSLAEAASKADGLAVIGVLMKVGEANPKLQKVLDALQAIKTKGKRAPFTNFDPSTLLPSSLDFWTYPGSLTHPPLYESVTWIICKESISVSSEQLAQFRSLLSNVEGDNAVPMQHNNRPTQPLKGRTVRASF", "experiment": "Carbonic anhydrase assay, carbonic anhydrase-1 (Method 4)", "assay_type": "biochemical", "conditions": "read-out: Inhibition of Carbonic anhydrase-1 IC50", "procedure": "as §1, §2, §3"}, "[3]": {"experiment": "In vivo pharmacokinetics in rats (Method 6)", "conditions": "male, Wistar, plasma; rat, iv dosing; read-out: t1/2: terminal half-life from in vivo rat study (converted)", "procedure": "6. In Vivo Pharmacokinetics in Rats\nFor in vivo pharmacokinetic experiments test compounds were administered to male Wistar rats intravenously at doses of 0.3 to 1 mg/kg formulated as solutions using either rat plasma or solubilizers such as PEG400 in well-tolerated amounts.\nFor pharmacokinetics after intravenous administration test compounds were given as i.v. bolus and blood samples were taken at 2 min, 8 min, 15 min, 30 min, 45 min, 1 h, 2 h, 4 h, 6 h, 8 h and 24 h after dosing. […] Blood was collected into Lithium-Heparin tubes (Monovetten®, Sarstedt) and centrifuged for 15 min at 3000 rpm. An aliquot of 100 μL from the supernatant (plasma) was taken and precipitated by addition of 400 μL icecold acetonitril and frozen at −20° C. over night. Samples were subsequently thawed and centrifuged at 3000 rpm, 4° C. for 20 minutes. Aliquots of the supernatants were taken for analytical testing using an Agilent 1200 HPLC-system with LCMS/MS detection. PK parameters were calculated by non-compartmental analysis using a PK calculation software.\nPK parameters derived from concentration-time profiles after i.v.: CLplasma: Total plasma clearance of test compound (in L/kg/h); CLblood: Total blood clearance of test compound: CLplasma*Cp/Cb (in L/kg/h) with Cp/Cb being the ratio of concentrations in plasma and blood, AUCnorm: Area under the concentration-time curve from t=0 h to infinity (extrapolated) divided by the administered dose (in kg*h/L); t½: terminal half-life (in h)."}, "[4]": {"tested_on": "MOLM-13 human acute myeloid leukemia cells", "experiment": "Proliferation assay, MOLM-13 (Cell Titre-Glo, Method 3)", "assay_type": "cell-based", "conditions": "MOLM-13, 72-hour exposure, read-out: Inhibition of MOLM-13 cell proliferation IC50", "procedure": "Non-adherent MOLM-13 human acute myeloid leukemia cells (DSMZ ACC 554) were seeded at a density of 5,000 cells/well in a 96-well multititer plate in 100 μL of growth medium supplemented 10% fetal calf serum. After 24 hours, cell viability of one plate (zero-point plate) was determined with the Cell Titre-Glo Luminescent Cell Viability Assay (Promega), while 50 μL of test compound containing medium was added to the wells of the other plates (final concentrations in the range of 0.001-10 μM and DMSO controls; the final concentration of the solvent dimethyl sulfoxide was 0.5%). Cell viability was assessed after 72-hour exposure with the Cell Titre-Glo Luminescent Cell Viability Assay (Promega)."}}, "note": "Read-outs that look alike come from different tables or passages of the source."}
{"smiles": "CS(=O)(Cc1cc(Nc2ncc(F)c(-c3ccc(F)cc3F)n2)cc(C(F)(F)F)c1)=NC#N", "note": "(racemic) [Example 1, (rac)-{[3-{[4-(2,4-Difluorophenyl)-5-fluoropyrimidin-2-yl]amino}-5-(trifluoromethyl)benzyl](methyl)oxido-λ^6-sulfanylidene}cyanamide]", "values": [{"measurement": "IC50", "setting": "[1]", "value": "> 10", "unit": "µM"}, {"measurement": "IC50", "setting": "[2]", "value": "> 10", "unit": "µM"}]}
{"smiles": "CS(=N)(=O)Cc1cc(Nc2ncc(F)c(-c3ccc(F)cc3F)n2)cc(C(F)(F)F)c1", "note": "(racemic) [Example 4, (rac)-4-(2,4-Difluorophenyl)-5-fluoro-N-{3-[(S-methylsulfonimidoyl)methyl]-5-(trifluoromethyl)phenyl}pyrimidin-2-amine]", "values": [{"measurement": "IC50", "setting": "[1]", "value": "> 10", "unit": "µM"}, {"measurement": "IC50", "setting": "[2]", "value": "> 10", "unit": "µM"}, {"measurement": "half-life", "setting": "[3]", "value": 270, "unit": "min"}]}
{"smiles": "CS(=O)(Cc1cc(Nc2ncc(F)c(-c3ccc(F)cc3F)n2)cc(C(F)(F)F)c1)=NC(N)=O", "note": "(racemic) [Example 7, (rac)-1-{[3-{[4-(2,4-Difluorophenyl)-5-fluoropyrimidin-2-yl]amino}-5-(trifluoromethyl)benzyl](methyl)oxido-λ^6-sulfanylidene}urea]", "values": [{"measurement": "IC50", "setting": "[1]", "value": "> 10", "unit": "µM"}, {"measurement": "IC50", "setting": "[2]", "value": "> 10", "unit": "µM"}]}
{"smiles": "CS(=N)(=O)Cc1cc(Cl)cc(Nc2ncc(F)c(-c3ccc(F)cc3F)n2)c1", "note": "(racemic) [Example 15, (rac)-N-{3-chloro-5-[(S-methylsulfonimidoyl)methyl]phenyl}-4-(2,4-difluorophenyl)-5-fluoropyrimidin-2-amine]", "values": [{"measurement": "IC50", "setting": "[1]", "value": "> 10", "unit": "µM"}, {"measurement": "IC50", "setting": "[2]", "value": "> 10", "unit": "µM"}]}
{"smiles": "CS(=O)(Cc1cc(Nc2ncc(F)c(-c3ccc(F)cc3F)n2)cc(S(F)(F)(F)(F)F)c1)=NC#N", "note": "(racemic) [Example 28, (rac)-{[3-{[4-(2,4-Difluorophenyl)-5-fluoropyrimidin-2-yl]amino}-5-(pentafluoro-λ^6-sulfanyl)benzyl](methyl)oxido-λ^6-sulfanylidene}cyanamide]", "values": [{"measurement": "IC50", "setting": "[4]; Homo sapiens, MOLM-13, 72 h", "value": 145, "unit": "nM"}]}
{"smiles": "CS(=O)(Cc1cc(Nc2ncc(F)c(-c3ccc(F)cc3F)n2)cc(C(F)(F)F)c1)=NC#N", "note": "(single isomer, unassigned) [Example 2, {[3-{[4-(2,4-Difluorophenyl)-5-fluoropyrimidin-2-yl]amino}-5-(trifluoromethyl)benzyl](methyl)oxido-λ^6-sulfanylidene}cyanamide]", "values": [{"measurement": "half-life", "setting": "[3]", "value": 258, "unit": "min"}]}
{"smiles": "CS(=N)(=O)Cc1cc(Nc2ncc(F)c(-c3ccc(F)cc3F)n2)cc(S(F)(F)(F)(F)F)c1", "note": "(single isomer, unassigned) [Example 32, 4-(2,4-Difluorophenyl)-5-fluoro-N-{3-[(S-methylsulfonimidoyl)methyl]-5-(pentafluoro-λ^6-sulfanyl)phenyl}pyrimidin-2-amine]", "values": [{"measurement": "IC50", "setting": "[4]", "value": 165, "unit": "nM"}, {"measurement": "half-life", "setting": "[3]", "value": 900, "unit": "min"}]}
{"smiles": "CS(=O)(Cc1cc(Nc2ncc(F)c(-c3ccc(F)cc3F)n2)cc(S(F)(F)(F)(F)F)c1)=NC(N)=O", "note": "(single isomer, unassigned) [Example 33, 1-{[3-{[4-(2,4-Difluorophenyl)-5-fluoropyrimidin-2-yl]amino}-5-(pentafluoro-λ^6-sulfanyl)benzyl](methyl)oxido-λ^6-sulfanylidene}urea]", "values": [{"measurement": "IC50", "setting": "[4]", "value": 200, "unit": "nM"}]}
